The structures appear in SMILES notation.

The test deals with bacterial strain LF82 binding to the glycoprotein BSA-(Mannose)3. Nature of the test: Bacterial Binding Assay (BBA). The test is classed as cell-based, Escherichia coli. To be noted: read-out: Bacterial Binding Assay IC50, LF82/Luciferase strain binding to BSA-(Man)3 coated plates, luminescence. The procedure, abridged:
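Inhibition of LF82/luciferase E. coli adhesion is read as luminescence after washing off unbound cells. Compound and bacteria (10^7 per well) are co-incubated 40-75 min at room temperature on wells coated with 0.5-2 μg/mL BSA-(Man)3, with BSA-only wells as background; IC50 values derived.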
Regarding `Cc1cc(-c2cccc(-c3ccc([C@H]4O[C@H](CO)[C@@H](O)[C@H](O)[C@@H]4O)c(C)c3)n2)ccc1[C@H]1O[C@H](CO)[C@@H](O)[C@H](O)[C@@H]1O` [Compound 154, (2R,3S,4R,5S,6R)-2-(hydroxymethyl)-6-[2-methyl-4-[6-[3-methyl-4-[(2R,3S,4R,5S,6R)-3,4,5-trihydroxy-6-(hydroxymethyl)tetrahydropyran-2-yl]phenyl]-2-pyridyl]phenyl]tetrahydropyran-3,4,5-triol], the IC50 turned out to be 44 nM.

Consider `Cc1cc(-c2cnc(-c3ccc([C@H]4O[C@H](CO)[C@@H](O)[C@H](O)[C@@H]4O)c(C)c3)cn2)ccc1[C@H]1O[C@H](CO)[C@@H](O)[C@H](O)[C@@H]1O` [Compound 153, (2R,3S,4R,5S,6R)-2-(hydroxymethyl)-6-[2-methyl-4-[5-[3-methyl-4-[(2R,3S,4R,5S,6R)-3,4,5-trihydroxy-6-(hydroxymethyl)tetrahydropyran-2-yl]phenyl]pyrazin-2-yl]phenyl]tetrahydropyran-3,4,5-triol], for which the IC50 was determined as 92 nM.

Regarding `Cc1cc(-c2ccc(C#C[C@H]3O[C@H](CO)[C@@H](O)[C@H](O)[C@@H]3O)c(C)c2)ccc1C#C[C@H]1O[C@H](CO)[C@@H](O)[C@H](O)[C@@H]1O` [Compound 121, (2R,3S,4R,5S,6R)-2-(hydroxymethyl)-6-[2-[2-methyl-4-[3-methyl-4-[2-[(2R,3S,4R,5S,6R)-3,4,5-trihydroxy-6-(hydroxymethyl)tetrahydropyran-2-yl]ethynyl]phenyl]phenyl]ethynyl]tetrahydropyran-3,4,5-triol], the IC50 worked out at 12 nM.

As for `CC(C)(C)C(=O)N1CCC2(CC1)c1cc(C#C[C@H]3O[C@H](CO)[C@@H](O)[C@H](O)[C@@H]3O)ccc1-c1ccc(C#C[C@H]3O[C@H](CO)[C@@H](O)[C@H](O)[C@@H]3O)cc12` [Compound 228, 1-[2,7-bis[2-[(2R,3S,4R,5S,6R)-3,4,5-trihydroxy-6-(hydroxymethyl)tetrahydropyran-2-yl]ethynyl]spiro[fluorene-9,4piperidine]-1yl]-2,2-dimethyl-propan-l-one], the IC50 worked out at 0.44 nM.

On to `O=C(c1c(C#C[C@H]2O[C@H](CO)[C@@H](O)[C@H](O)[C@@H]2O)ccc2c1C1(CCNCC1)c1cc(C#C[C@H]3O[C@H](CO)[C@@H](O)[C@H](O)[C@@H]3O)ccc1-2)C1CC1(F)F` (stereo partly drawn) [Compound 235, [2,7-bis[2-[(2R,3S,4R,5S,6R)-3,4,5-trihydroxy-6-(hydroxymethyl)tetrahydropyran-2-yl]ethynyl]spiro[fluorene-9,4piperidine]-1yl]-(2,2-difluorocyclopropyl)methanone], for which the IC50 came to 0.03 nM.

In the case of `O=C1CC[C@H](C(=O)c2c(C#C[C@H]3O[C@H](CO)[C@@H](O)[C@H](O)[C@@H]3O)ccc3c2C2(CCNCC2)c2cc(C#C[C@H]4O[C@H](CO)[C@@H](O)[C@H](O)[C@@H]4O)ccc2-3)N1` [Compound 243, (5R)-5-[2,7-bis[2-[(2R,3S,4R,5S,6R)-3,4,5-trihydroxy-6-(hydroxymethyl)tetrahydropyran-2-yl]ethynyl]spiro[fluorene-9,4piperidine]-1carbonyl]pyrrolidin-2-one], the IC50 worked out at 0.22 nM.

`Cc1cc([C@H]2O[C@H](CO)[C@@H](O)[C@H](O)[C@@H]2O)ccc1-c1ccc([C@H]2O[C@H](CO)[C@@H](O)[C@H](O)[C@@H]2O)cc1` [Compound 63]: the IC50 was determined as 112 nM.

Take `Cc1c(C#C[C@H]2O[C@H](CO)[C@@H](O)[C@H](O)[C@@H]2O)cccc1[C@H]1O[C@H](CO)[C@@H](O)[C@H](O)[C@@H]1O` [Compound 148]: the IC50 was 130 nM.

In the case of `OC[C@H]1O[C@H](C#Cc2cnc(C#C[C@H]3O[C@H](CO)[C@@H](O)[C@H](O)[C@@H]3O)cn2)[C@@H](O)[C@@H](O)[C@@H]1O` [Compound 135], the IC50 came to 580 nM.

For `OC[C@H]1O[C@H](c2ccc(-c3ccc(-c4ccc([C@H]5O[C@H](CO)[C@@H](O)[C@H](O)[C@@H]5O)cc4)cc3)cc2)[C@@H](O)[C@@H](O)[C@@H]1O` [Compound 65], the IC50 was determined as 55 nM.

Regarding `O=C(Cn1c2cc(C#C[C@H]3O[C@H](CO)[C@@H](O)[C@H](O)[C@@H]3O)ccc2c2ccc(C#C[C@H]3O[C@H](CO)[C@@H](O)[C@H](O)[C@@H]3O)cc21)N1CCOCC1` [Compound 180, 2-[2,7-bis[2-[(2R,3S,4R,5S,6R)-3,4,5-trihydroxy-6-(hydroxymethyl)tetrahydropyran-2-yl]ethynyl]carbazol-9-yl]-1-morpholino-ethanone], the IC50 came out at 5.5 nM.

In the case of `CC(C)(C)OC(=O)N1CCC(n2c3cc(C#C[C@H]4O[C@H](CO)[C@@H](O)[C@H](O)[C@@H]4O)ccc3c3ccc(C#C[C@H]4O[C@H](CO)[C@@H](O)[C@H](O)[C@@H]4O)cc32)CC1` [Compound 185, tert-butyl 4-[2,7-bis[2-[(2R,3S,4R,5S,6R)-3,4,5-trihydroxy-6-(hydroxymethyl)tetrahydropyran-2-yl]ethynyl]carbazol-9-yl]piperidine-1-carboxylate], the IC50 stood at 1.1 nM.

For `N#CC1(C(=O)c2c(C#C[C@H]3O[C@H](CO)[C@@H](O)[C@H](O)[C@@H]3O)ccc3c2C2(CCNCC2)c2cc(C#C[C@H]4O[C@H](CO)[C@@H](O)[C@H](O)[C@@H]4O)ccc2-3)CC1` [Compound 230, 1-[2,7-bis[2-[(2R,3S,4R,5S,6R)-3,4,5-trihydroxy-6-(hydroxymethyl)tetrahydropyran-2-yl]ethynyl]spiro[fluorene-9,4piperidine]-1carbonyl]cyclopropanecarbonitrile], the IC50 worked out at 0.16 nM.

Consider `OCC(O)Cn1c2ccc(C#C[C@H]3O[C@H](CO)[C@@H](O)[C@H](O)[C@@H]3O)cc2c2cc(C#C[C@H]3O[C@H](CO)[C@@H](O)[C@H](O)[C@@H]3O)ccc21` (stereo partly drawn) [Compound 174, (2R,3S,4R,5S,6R)-2-[2-[9-(2,3-dihydroxypropyl)-6-[2-[(2R,3S,4R,5S,6R)-3,4,5-trihydroxy-6-(hydroxymethyl)tetrahydropyran-2-yl]ethynyl]carbazol-3-yl]ethynyl]-6-(hydroxymethyl)tetrahydropyran-3,4,5-triol], for which the IC50 was found to be 4.7 nM.

Consider `OC[C@H]1O[C@H](C#Cc2ccc3c(c2)c2cc(C#C[C@H]4O[C@H](CO)[C@@H](O)[C@H](O)[C@@H]4O)ccc2n3-c2ccccc2)[C@@H](O)[C@@H](O)[C@@H]1O` [Compound 164], for which the IC50 stood at 35 nM.

On to `CC(C)(C#N)c1cc(C#C[C@H]2O[C@H](CO)[C@@H](O)[C@H](O)[C@@H]2O)ccc1C#C[C@H]1O[C@H](CO)[C@@H](O)[C@H](O)[C@@H]1O` [Compound 70], for which the IC50 was 15 nM.

For `COCCc1cc(C#C[C@H]2O[C@H](CO)[C@@H](O)[C@H](O)[C@@H]2O)ccc1C#C[C@H]1O[C@H](CO)[C@@H](O)[C@H](O)[C@@H]1O` [Compound 74], the IC50 stood at 8.1 nM.

As for `OC[C@H]1O[C@H](C#Cc2cc(F)c(C#C[C@H]3O[C@H](CO)[C@@H](O)[C@H](O)[C@@H]3O)c(F)c2)[C@@H](O)[C@@H](O)[C@@H]1O` [Compound 93, (2R,3S,4R,5S,6R)-2-[2-[3,5-difluoro-4-[2-[(2R,3S,4R,5S,6R)-3,4,5-trihydroxy-6-(hydroxymethyl)tetrahydropyran-2-yl]ethynyl]phenyl]ethynyl]-6-(hydroxymethyl)tetrahydropyran-3,4,5-triol], the IC50 is 88 nM.

For the compound `Cc1cc(C#Cc2ccc([C@H]3O[C@H](CO)[C@@H](O)[C@H](O)[C@@H]3O)c(C)c2)ccc1[C@H]1O[C@H](CO)[C@@H](O)[C@H](O)[C@@H]1O` [Compound 152, (2R,3S,4R,5S,6R)-2-(hydroxymethyl)-6-[2-methyl-4-[2-[3-methyl-4-[(2R,3S,4R,5S,6R)-3,4,5-trihydroxy-6-(hydroxymethyl)tetrahydropyran-2-yl]phenyl]ethynyl]phenyl]tetrahydropyran-3,4,5-triol], the IC50 worked out at 31 nM.

`OC[C@H]1O[C@H](C#Cc2ccc3c(c2)C2(CCC(O)CC2)c2cc(C#C[C@H]4O[C@H](CO)[C@@H](O)[C@H](O)[C@@H]4O)ccc2-3)[C@@H](O)[C@@H](O)[C@@H]1O` (stereo partly drawn) [Compound 203]: the IC50 was found to be 0.04 nM.

`Cn1c2cc(C#C[C@H]3O[C@H](CO)[C@@H](O)[C@H](O)[C@@H]3O)ccc2c2ccc(C#C[C@H]3O[C@H](CO)[C@@H](O)[C@H](O)[C@@H]3O)cc21` [Compound 112, (2R,3S,4R,5S,6R)-2-(hydroxymethyl)-6-[2-[9-methyl-7-[2-[(2R,3S,4R,5S,6R)-3,4,5-trihydroxy-6-(hydroxymethyl)tetrahydropyran-2-yl]ethynyl]carbazol-2-yl]ethynyl]tetrahydropyran-3,4,5-triol]: the IC50 worked out at 17 nM.

Regarding `CCCCCCc1cc(C#C[C@H]2O[C@H](CO)[C@@H](O)[C@H](O)[C@@H]2O)c(CCCCCC)cc1C#C[C@H]1O[C@H](CO)[C@@H](O)[C@H](O)[C@@H]1O` [Compound 82, (2R,3S,4R,5S,6R)-2-[2-[2,5-dihexyl-4-[2-[(2R,3S,4R,5S,6R)-3,4,5-trihydroxy-6-(hydroxymethyl)tetrahydropyran-2-yl]ethynyl]phenyl]ethynyl]-6-(hydroxymethyl)tetrahydropyran-3,4,5-triol], the IC50 was found to be 18 nM.

Consider `O=C(c1ccn[nH]1)N1CCC2(CC1)c1cc(C#C[C@H]3O[C@H](CO)[C@@H](O)[C@H](O)[C@@H]3O)ccc1-c1ccc(C#C[C@H]3O[C@H](CO)[C@@H](O)[C@H](O)[C@@H]3O)cc12` [Compound 231], for which the IC50 was 0.08 nM.

Take `O=C(O)Cn1c2cc(C#C[C@H]3O[C@H](CO)[C@@H](O)[C@H](O)[C@@H]3O)ccc2c2ccc(C#C[C@H]3O[C@H](CO)[C@@H](O)[C@H](O)[C@@H]3O)cc21` [Compound 176, 2-[2,7-Bis[2-[(2R,3S,4R,5S,6R)-3,4,5-trihydroxy-6-(hydroxymethyl)tetrahydropyran-2-yl]ethynyl]carbazol-9-yl]acetic acid]: the IC50 came to 10 nM.

For the origin of these results see US11634447B2 (priority 2012, dated 2023).
